For series [1], the system named is P-gp. The following applies: cited from earlier work.
For the next series, the system named is HIV-1LAI. The experiment in a line: HIV-1 cell inhibition assay (p24 ELISA) in infected 12D7 cells. Type of series: cell-based. Conditions: HIV-1LAI infected 12D7 cells; 6 days; medium with drug changed after 3 days; Figure 2. The method, then:
(§1) To investigate if Aba-S2-NFV1 and Aba-S2-DRV8 are effective against HIV-1 in cells, an in vitro HIV-1 titer assay was performed using the 12D7 cell line. 12D7 cells were infected with HIV-1LAI, and anti-HIV-1 activity was measured by monitoring p24 protein levels as previously described.[45],[46] First the stability of the prodrugs was monitored in PBS and cell culture media using UPLC–MS. […] Therefore, for the cell-based anti-HIV-1 experiments, the medium, with drugs, was changed every 3 days. […] (Figure 2). […] Thus, this difference in chemical connectivity leads to a difference in monomer release that may be responsible for the differences in anti-HIV-1 potency.
12D7 cells were grown in the identical medium for the cell culture medium stability studies. The cells in log-phase were pelleted and resuspended at 1 million cells per mL. 500 TCID50 HIV-1LAI was used to infect cells for 4 h using a known procedure.[45] These infected cells were plated at a density of 75 000 cells per mL in 48-well plates after three washes with the medium. Different concentrations of the compound of interest were added keeping the DMSO concentration at 0.05%. […] On the sixth day, the supernatant was analyzed using ELISA to quantify the amount of HIV-1 p24 (gag) protein generated in each sample.[46] […]
Background: ELISA stands for enzyme-linked immunosorbent assay.

Series [2] addresses T1, P-gp (Homo sapiens, UniProt P08183). The experiment in a line: P-gp substrate accumulation assay (flow cytometry) in hCMEC/D3 cells. The format is cell-based. An excerpt:
(§2) One of the goals of the designed TH heterodimers is to inhibit P-gp-mediated efflux. A substrate accumulation assay was used to evaluate the potency of Aba-S2-NFV1 and Aba-S2-DRV8 as P-gp inhibitors using the P-gp substrates calcein-AM and NBD-Aba.[38],[39] Two cell lines were used to monitor the accumulation of these fluorescent P-gp substrates: 12D7-MDR cells which are CD4+ T lymphocytes with overexpression of P-gp,[40] and hCMEC/D3 cells as an in vitro BBB model cell line.[41] hCMEC/D3 cells are an immortalized human brain capillary endothelial cell line that expresses endogenous levels of P-gp.[42],[43] Inhibition of P-gp efflux was measured by monitoring the increase in cellular fluorescence with added heterodimer by flow cytometry.
(§3) The growth of cells was maintained at 37 °C in 5% CO2. hCMEC/D3 cells were cultured according to literature protocols with minor modifications.[41]
(§4) Flow cytometry was used to estimate P-gp inhibition using a substrate accumulation assay as described previously with some minor changes.[38] […] The cells were harvested by centrifugation at 300g at 4 °C for 7 min. The supernatant was carefully removed, and 400 μL of cold, sterile PBS was added to the cell pellet. […] The mean fluorescence value for each concentration corresponded to 10 000 cells. Each sample was run in duplicate, and all the experiments were run in duplicates on two different days. The average fluorescence accumulated in the cells for samples was used to plot the mean fluorescence vs concentration, and the IC50 values were estimated using GraphPad Prism.
On the technique in general: Flow cytometry measures light scatter and fluorescence of single cells or particles in a stream.

A short description of another series: in vitro. Type of series: cell-based. Conditions: human. How it is done: An MTT assay was used to determine the cell toxicity of Aba-S2-NFV1 and Aba-S2-DRV8 in the 12D7-MDR cell lines after 24 h.[44]
The viability of 12D7-MDR cells in the presence of a TH heterodimer (Aba-S2-NFV1 or Aba-S2-DRV8) was measured using the standard MTT assay.[44] 20 000 12D7-MDR cells were plated in 96-well plate in 100 μL of cell medium. After 12 h, TH heterodimer in medium was added to each well to give a final concentration of 5, 10, and 20 μM (1% DMSO). After 24 h 20 μL of MTT in PBS (5 mg/mL) was added to all the wells and incubated for 2.5 h. The 96-well plates were centrifuged at 300g for 7 min, followed by careful removal of supernatant. 100 μL of DMSO was added to dissolve the formazan. The absorbance of the DMSO solution was read using a plate reader at 590 nm. Cell viability was reported as the ratio of absorbance of cells treated with TH heterodimer relative to cells treated with DMSO.

The target in series [3] is T1, P-gp. The experiment in a line: P-gp substrate accumulation assay (flow cytometry) in 12D7-MDR cells. The format is cell-based. The arrangement: host or cells: 12D7-MDR cells (CD4+ T lymphocytes, kept under vincristine). The following applies: for IC50: 12D7-MDR cells, 30 min, 1% DMSO.
Text: as §2, §3, §4

Series [4] can be described thus: Stability of prodrugs in PBS and cell culture media. The format is physicochemical. The following applies: 37 °C. How it is done:
as §1
The cell media stability studies for the TH heterodimers (Aba-S2-NFV1 or Aba-S2-DRV8) were carried out following a previously published protocol with some modifications.[32] Heterodimers (100 μM) were incubated at 37 °C in the cell medium used for 12D7 cells (complete RPMI 1640 medium with 50 units/mL of penicillin and 50 μg/mL streptomycin, 5 mM of L-glutamine, and 10% FBS) with 1% DMSO. Every 24 h ice-cold acetonitrile with 4-methoxybenzyl alcohol (1.0 mM) was added to an aliquot of the reaction mixture (1:1). The resultant solution was vortexed for 1 min, sonicated for 10 min, and centrifuged twice at 10 000g for 10 min each. The supernatant was stored at −80 °C. All samples were analyzed using a C8 analytical column (Phenomenex, USA) on RP-HPLC with eluent consisting of solvent A (water and 0.05% TFA) and solvent B (acetonitrile and 0.05% TFA). A gradient of 15–75% solvent B over 30 min with a flow rate of 1.2 mL/min and UV detection at 254 nm was used. The assays were performed in duplicate.

The nature of series [5]: Reversion of TH heterodimers into monomers in a reducing environment (DTT or GSH), UPLC-MS. Type of series: physicochemical. Conditions: ratio of t1/2 values (DTT). How it is done: The breakdown of the TH heterodimers with DTT and glutathione (GSH) and the release of monomers were monitored using UPLC–MS at various time points. The reduction of the heterodimers to free thiols occurs rapidly, with full reduction observed within 1 h. Upon appearance of free thiols, the subsequent rearrangement led to the generation of the component monomeric drugs. […] This significant difference in monomer release is likely due to the differences in the chemical connectivity of the monomers. NFV, as described above, is connected to the tether via a phenolic moiety, whereas DRV is linked by a secondary alcohol. The better leaving group ability of the phenol versus the secondary alcohol likely leads to the observed difference in monomer regeneration.
Stability studies with DTT and GSH were adapted from a previously published protocol with some changes.[32] […] When monitoring NFV and DRV release, an aliquot of the reaction mixture was taken at different time points and directly analyzed by UPLC–MS. […] The time points were analyzed using RP-UPLC with a C18 column consisting of solvent A (water and 0.1% formic acid) and solvent B (acetonitrile and 0.1% formic acid), a gradient of 5–95% of solvent B over 10 min, and a flow rate of 0.5 mL/min. […]

The mark [6] stands for this setting: NBD-Aba 5 μM, 30 min, 1% DMSO, read-out: IC50, inhibition of P-gp mediated efflux of NBD-Aba.
[7] abbreviates: calcein-AM 0.25 μM, 30 min, 1% DMSO, read-out: IC50, inhibition of P-gp mediated efflux of calcein-AM.
Where [8] appears, read: NBD-Aba 5 μM, read-out: IC50, inhibition of P-gp mediated efflux of NBD-Aba.
The mark [9] stands for this setting: calcein-AM 0.25 μM, read-out: IC50, inhibition of P-gp mediated efflux of calcein-AM.

Like-named read-outs stand apart in the source and are kept apart here.

For orientation: IC50 means the midpoint of a concentration-inhibition curve. Broadly, the viability is the share of living cells, or the viability signal relative to a control.

T1 sequence (P08183 whole entry): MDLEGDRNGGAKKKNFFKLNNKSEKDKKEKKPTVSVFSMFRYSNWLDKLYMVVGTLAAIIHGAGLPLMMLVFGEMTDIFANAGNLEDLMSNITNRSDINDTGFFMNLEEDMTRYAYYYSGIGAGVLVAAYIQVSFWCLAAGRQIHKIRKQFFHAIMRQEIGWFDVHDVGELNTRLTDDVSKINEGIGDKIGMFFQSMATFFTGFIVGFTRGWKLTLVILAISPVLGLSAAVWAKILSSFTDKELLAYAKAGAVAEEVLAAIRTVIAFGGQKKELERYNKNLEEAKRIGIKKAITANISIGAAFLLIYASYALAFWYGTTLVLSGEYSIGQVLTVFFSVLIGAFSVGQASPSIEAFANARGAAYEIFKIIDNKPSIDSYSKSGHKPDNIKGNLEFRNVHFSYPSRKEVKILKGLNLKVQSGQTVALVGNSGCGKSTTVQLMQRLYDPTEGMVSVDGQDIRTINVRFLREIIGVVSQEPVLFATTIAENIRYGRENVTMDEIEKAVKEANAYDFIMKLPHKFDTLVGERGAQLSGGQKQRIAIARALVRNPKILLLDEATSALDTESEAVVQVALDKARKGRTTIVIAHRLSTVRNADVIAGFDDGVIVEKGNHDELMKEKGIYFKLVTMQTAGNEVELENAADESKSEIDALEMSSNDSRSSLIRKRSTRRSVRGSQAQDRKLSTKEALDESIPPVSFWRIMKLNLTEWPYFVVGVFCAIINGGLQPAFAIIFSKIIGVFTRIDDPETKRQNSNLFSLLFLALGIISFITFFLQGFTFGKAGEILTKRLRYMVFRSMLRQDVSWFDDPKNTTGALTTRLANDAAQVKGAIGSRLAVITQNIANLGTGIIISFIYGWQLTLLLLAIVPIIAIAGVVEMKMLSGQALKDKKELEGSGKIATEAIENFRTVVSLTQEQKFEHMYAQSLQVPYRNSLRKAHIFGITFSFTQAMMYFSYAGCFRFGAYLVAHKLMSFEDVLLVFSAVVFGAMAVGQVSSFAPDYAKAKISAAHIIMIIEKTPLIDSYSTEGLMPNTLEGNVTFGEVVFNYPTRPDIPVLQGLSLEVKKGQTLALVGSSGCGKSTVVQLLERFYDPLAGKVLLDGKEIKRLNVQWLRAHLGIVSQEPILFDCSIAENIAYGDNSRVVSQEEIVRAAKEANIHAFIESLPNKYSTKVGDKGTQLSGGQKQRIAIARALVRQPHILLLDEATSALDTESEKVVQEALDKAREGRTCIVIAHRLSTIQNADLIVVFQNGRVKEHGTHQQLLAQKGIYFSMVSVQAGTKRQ

Regarding `Nc1nc(NC2CC2)c2ncn([C@H]3C=C[C@@H](CO)C3)c2n1` [Aba, abacavir], the “increase of brain accumulation in P-gp null mice as compared to wild-type mice” value with P-gp [1] (P-gp null mice vs wild-type mice) was 20 fold.
Regarding `CC(C)CN(C[C@@H](OC(=O)CCCSSCCCC(=O)OC[C@@H]1C=C[C@H](n2cnc3c(NC4CC4)nc(N)nc32)C1)[C@H](Cc1ccccc1)NC(=O)O[C@H]1CO[C@H]2OCC[C@H]21)S(=O)(=O)c1ccc(N)cc1` [Aba-S2-DRV8, abacavir-S2-darunavir-8], in the series on HIV-1LAI, the “anti-HIV-1 activity (HIV-1 p24 levels)” value was “less potent than the 1:1 mixture of Aba and DRV”. For the same compound, the IC50 at P-gp [2] (setting [6]) is 90 ± 20 nM; on P-gp [2] (setting [7]), 80 ± 20 nM; at P-gp [2] (calcein-AM and NBD-Aba substrates, read-out: IC50 values, inhibition of P-gp efflux), 80 to 90 nM; on P-gp [3] (setting [8]), 510 ± 80 nM; on P-gp [3] (setting [9]), 500 ± 40 nM. This compound also registered a viability at 24 h, 20 µM in the series “in vitro” of 70%. Also, the “stability of prodrug beyond 3 days” value in series [4] is given as “decomposition observed after day 4”. Moreover, in series [4] (after 3 days), the prodrug intact entry is listed as “greater than 95%”.
`Cc1c(OC(=O)CCCSSCCCC(=O)OC[C@@H]2C=C[C@H](n3cnc4c(NC5CC5)nc(N)nc43)C2)cccc1C(=O)N[C@@H](CSc1ccccc1)[C@H](O)CN1C[C@H]2CCCC[C@H]2C[C@H]1C(=O)NC(C)(C)C` [Aba-S2-NFV1, abacavir-S2-nelfinavir-1]: the “anti-HIV-1 activity (HIV-1 p24 levels)” value with HIV-1LAI is “superior potency as compared to Aba-S2-DRV8”. Also, the IC50 was 410 ± 60 nM at P-gp [2] (setting [6]), 590 ± 70 nM on P-gp [2] (setting [7]), 650 ± 90 nM on P-gp [3] (setting [8]) and 770 ± 50 nM on P-gp [3] (setting [9]). For the same compound, the “fold faster release of NFV from Aba-S2-NFV1 than DRV release from Aba-S2-DRV8” value in series [5] is reported as 18 fold. The compound also showed a viability at 24 h, 20 µM in “in vitro” greater than 95%. Besides, the “fold increase in inhibition of P-gp as compared to the monomeric PI (NFV or DRV)” value on P-gp [3] (ratio of IC50 values of Table 1, 12D7-MDR and hCMEC/D3 cells, calcein-AM and NBD-Aba) was 3- to 12 fold. For the same compound, the prodrug intact result in series [4] (after 1 week) is on record as “greater than 95%”.
`CC(C)CN(C[C@@H](O)[C@H](Cc1ccccc1)NC(=O)O[C@H]1CO[C@H]2OCC[C@H]21)S(=O)(=O)c1ccc(N)cc1` [DRV, darunavir, reference compound]: the IC50 is 15400 ± 3200 nM at P-gp [2] (setting [6]), 6600 ± 1900 nM on P-gp [2] (setting [7]), 60000 ± 9400 nM on P-gp [3] (setting [8]) and 33200 ± 6500 nM at P-gp [3] (setting [9]).
Regarding `Cc1c(O)cccc1C(=O)N[C@@H](CSc1ccccc1)[C@H](O)CN1C[C@H]2CCCC[C@H]2C[C@H]1C(=O)NC(C)(C)C` [NFV, nelfinavir], the “increase of brain accumulation in P-gp null mice as compared to wild-type mice” value in the series with P-gp [1] (mouse, not told) is recorded as 36 fold.

These data come from publication PMC7073916, “Potential Tools for Eradicating HIV Reservoirs in the Brain: Development of Trojan Horse Prodrugs for the Inhibition of P-Glycoprotein with Anti-HIV-1 Activity” (Journal of Medicinal Chemistry, 2019).
